In ChEMBL document CHEMBL3875217, “Identification of a melampomagnolide B analog as a potential lead molecule for treatment of acute myelogenous leukemia” (Bioorg Med Chem, 2017):

Key:
[1] = Antileukemic activity against human M9-ENL1 cells assessed as increase in apoptotic cell level after 24 hrs by Annexin V/propidium iodide/7-AAD based FACS analysis; type: functional; conditions: M9-ENL1, 24 h
[2] = Potency index, ration of parthenolide EC50 to compound EC50 for human M9-ENL1 cells; type: functional
[3] = Cmax in BALB/c mouse at 271.2 mg/kg, po by LC/MS/MS analysis; type: ADME, organism-based; parameters: dose 271.2 mg/kg, route oral; conditions: in vivo
[4] = Tmax in BALB/c mouse at 271.2 mg/kg, po by LC/MS/MS analysis; type: ADME, organism-based; conditions: in vivo
[5] = Apparent elimination half life in BALB/c mouse at 271.2 mg/kg, po by LC/MS/MS analysis; type: ADME, organism-based; conditions: in vivo
[6] = AUC in BALB/c mouse at 200 mg/kg, po by LC/MS/MS analysis; type: ADME, organism-based; conditions: in vivo
[7] = Total clearance in BALB/c mouse at 27.1 mg/kg, iv or 271.2 mg/kg, po by LC/MS/MS analysis; type: ADME, organism-based; conditions: in vivo
[8] = Oral bioavailability in BALB/c mouse at 271.2 mg/kg by LC/MS/MS analysis; type: ADME, organism-based; conditions: in vivo
[9] = Drug uptake in BALB/c mouse blood at 271.2 mg/kg, po after 15 mins by LC/MS/MS analysis; type: ADME, organism-based; conditions: in vivo, 0.25 h
[10] = Drug uptake in BALB/c mouse Plasma at 271.2 mg/kg, po after 15 mins by LC/MS/MS analysis; type: ADME, organism-based; conditions: in vivo, 0.25 h
[11] = Cmax in BALB/c mouse at 200 mg/kg, po by LC/MS/MS analysis; type: ADME, organism-based; parameters: dose 200 mg/kg, route oral; conditions: in vivo
[12] = Tmax in BALB/c mouse at 200 mg/kg, po by LC/MS/MS analysis; type: ADME, organism-based; conditions: in vivo
[13] = Apparent elimination half life in BALB/c mouse at 200 mg/kg, po by LC/MS/MS analysis; type: ADME, organism-based; conditions: in vivo
[14] = Total clearance in BALB/c mouse at 20 mg/kg, iv or 200 mg/kg, po by LC/MS/MS analysis; type: ADME, organism-based; conditions: in vivo
[15] = Oral bioavailability in BALB/c mouse at 200 mg/kg by LC/MS/MS analysis; type: ADME, organism-based; conditions: in vivo
[16] = Drug uptake in BALB/c mouse blood at 200 mg/kg, po after 15 mins by LC/MS/MS analysis; type: ADME, organism-based; conditions: in vivo, 0.25 h

C=C1C(=O)O[C@H]2[C@H]1CC/C(COC(=O)NCc1nc3ccccc3[nH]1)=C\CC[C@@]1(C)O[C@@H]21
EC50 [1]: 3900 nM

C=C1C(=O)O[C@H]2[C@H]1CC/C(COC(=O)n1ccnc1)=C\CC[C@@]1(C)O[C@@H]21
EC50 [1]: 900 nM | Ratio EC50 [2]: 8 | Cmax [3]: 10.6 µM | Tmax [4]: 0.502 h | betat1/2(app) [5]: 92.3 min | AUC [6]: 2137.5 µmol·min/L | clearance [7]: 200 mL/min/kg | F [8]: 45.5% | Drug uptake [9]: Active | Drug uptake [10]: Active

C=C1C(=O)O[C@H]2[C@H]1CC/C(COC(=O)n1cc(C)nc1CC)=C\CC[C@@]1(C)O[C@@H]21
EC50 [1]: 1400 nM

C=C1C(=O)O[C@H]2[C@H]1CC/C(COC(=O)Nc1nc3ccccc3[nH]1)=C\CC[C@@]1(C)O[C@@H]21
EC50 [1]: 1600 nM

C=C1C(=O)O[C@H]2[C@H]1CC/C(COC(=O)n1ccnc1C)=C\CC[C@@]1(C)O[C@@H]21
EC50 [1]: 2100 nM

C=C1C(=O)O[C@@H]2[C@H]3O[C@]3(C)CC/C=C(\C)CC[C@@H]12
EC50 [1]: 7000 nM

C=C1C(=O)O[C@H]2[C@H]1CC/C(CO)=C\CC[C@@]1(C)O[C@@H]21
EC50 [1]: 15500 nM | Cmax [11]: 4.5 µM | Tmax [12]: 2 h | betat1/2(app) [13]: 61.8 min | AUC [6]: 868.3 µmol·min/L | clearance [14]: 70 mL/min/kg | F [15]: 6.7% | Drug uptake [16]: Active
